# How the values were obtained:
# Assay in all cases: KINOMEscan
# Format in all cases: binding
# Settings in all cases: read-out: %Ctrl @ 1000 nM
# [1] = biological target: T1, PKN2 (Homo sapiens, UniProt Q16513)
# T1 construct: purchased DiscoveRx KINOMEscan
# [2] = biological target: T2, SGK (Homo sapiens, UniProt O00141)
# T2 construct: purchased DiscoveRx KINOMEscan
# [3] = biological target: T3, SG110 (Homo sapiens, UniProt P0C264)
# T3 construct: purchased DiscoveRx KINOMEscan
# [4] = biological target: T4, GRK7 (Homo sapiens, UniProt Q8WTQ7)
# T4 construct: purchased DiscoveRx KINOMEscan
# [5] = biological target: T5, NEK10 (Homo sapiens, UniProt Q6ZWH5)
# T5 construct: purchased DiscoveRx KINOMEscan
# [6] = biological target: T6, PLK4 (Homo sapiens, UniProt O00444)
# T6 construct: purchased DiscoveRx KINOMEscan
# [7] = biological target: T7, KIT(D816V) (Homo sapiens, UniProt P10721, D816V)
# T7 construct: purchased DiscoveRx KINOMEscan
# [8] = biological target: T8, WNK1 (Homo sapiens, UniProt Q9H4A3)
# T8 construct: purchased DiscoveRx KINOMEscan
# [9] = biological target: T9, SGK2 (Homo sapiens, UniProt Q9HBY8)
# T9 construct: purchased DiscoveRx KINOMEscan
# [10] = biological target: T10, GCN2(Kin.Dom.2,S808G) (Homo sapiens, UniProt Q9P2K8, S808G)
# T10 construct: GCN2(Kin.Dom.2,S808G); purchased DiscoveRx KINOMEscan
# [11] = biological target: T11, PIM3 (Homo sapiens, UniProt Q86V86)
# T11 construct: purchased DiscoveRx KINOMEscan
# [12] = biological target: T12, BUB1 (Homo sapiens, UniProt O43683)
# T12 construct: purchased DiscoveRx KINOMEscan
# [13] = biological target: T13, CDK3 (Homo sapiens, UniProt Q00526)
# T13 construct: purchased DiscoveRx KINOMEscan
# [14] = biological target: T14, RSK2(Kin.Dom.1-N-terminal) (Homo sapiens, UniProt P51812)
# T14 construct: RSK2(Kin.Dom.1-N-terminal); purchased DiscoveRx KINOMEscan
# [15] = biological target: T15, FGFR3 (Homo sapiens, UniProt P22607)
# T15 construct: purchased DiscoveRx KINOMEscan
# [16] = biological target: T16, ANKK1 (Homo sapiens, UniProt Q8NFD2)
# T16 construct: purchased DiscoveRx KINOMEscan
# [17] = biological target: T17, PIK3CA(M1043I) (Homo sapiens, UniProt P42336, M1043I)
# T17 construct: purchased DiscoveRx KINOMEscan
# [18] = biological target: T18, DYRK1A (Homo sapiens, UniProt Q13627)
# T18 construct: purchased DiscoveRx KINOMEscan
# [19] = biological target: T19, MLK2 (Homo sapiens, UniProt Q02779)
# T19 construct: purchased DiscoveRx KINOMEscan
# [20] = biological target: T20, MST1R (Homo sapiens, UniProt Q04912)
# T20 construct: purchased DiscoveRx KINOMEscan
# [21] = biological target: T21, CDC2L1 (Homo sapiens, UniProt P21127)
# T21 construct: purchased DiscoveRx KINOMEscan
# [22] = biological target: T22, PIK3CA(Q546K) (Homo sapiens, UniProt P42336, Q546K)
# T22 construct: purchased DiscoveRx KINOMEscan
# [23] = biological target: T23, CSNK1A1L (Homo sapiens, UniProt Q8N752)
# T23 construct: purchased DiscoveRx KINOMEscan
# [24] = biological target: T24, CDKL3 (Homo sapiens, UniProt Q8IVW4)
# T24 construct: purchased DiscoveRx KINOMEscan
# [25] = biological target: T25, PKMYT1 (Homo sapiens, UniProt Q99640)
# T25 construct: purchased DiscoveRx KINOMEscan
# [26] = biological target: T26, ACVR1B (Homo sapiens, UniProt P36896)
# T26 construct: purchased DiscoveRx
# [27] = biological target: T27, PDGFRA (Homo sapiens, UniProt P16234)
# T27 construct: purchased DiscoveRx KINOMEscan
# [28] = biological target: T28, TAOK1 (Homo sapiens, UniProt Q7L7X3)
# T28 construct: purchased DiscoveRx KINOMEscan
# [29] = biological target: T29, FGFR2 (Homo sapiens, UniProt P21802)
# T29 construct: purchased DiscoveRx KINOMEscan
# [30] = biological target: T30, MAPKAPK5 (Homo sapiens, UniProt Q8IW41)
# T30 construct: purchased DiscoveRx KINOMEscan
# [31] = biological target: T31, p38-beta (Homo sapiens, UniProt Q15759)
# T31 construct: purchased DiscoveRx KINOMEscan
# [32] = biological target: T32, FGFR1 (Homo sapiens, UniProt P11362)
# T32 construct: purchased DiscoveRx KINOMEscan
# [33] = biological target: T33, PYK2 (Homo sapiens, UniProt Q14289)
# T33 construct: purchased DiscoveRx KINOMEscan
# [34] = biological target: T34, TAOK3 (Homo sapiens, UniProt Q9H2K8)
# T34 construct: purchased DiscoveRx KINOMEscan
# [35] = biological target: T35, PIK3CA(H1047Y) (Homo sapiens, UniProt P42336, H1047Y)
# T35 construct: purchased DiscoveRx KINOMEscan
# [36] = biological target: T36, BRK (Homo sapiens, UniProt Q13882)
# T36 construct: purchased DiscoveRx KINOMEscan
# [37] = biological target: T37, PRKR (Homo sapiens, UniProt P19525)
# T37 construct: purchased DiscoveRx KINOMEscan
# [38] = biological target: T38, MAP3K3 (Homo sapiens, UniProt Q99759)
# T38 construct: purchased DiscoveRx KINOMEscan
# [39] = biological target: T39, TAK1 (Homo sapiens, UniProt O43318)
# T39 construct: purchased DiscoveRx KINOMEscan
# [40] = biological target: T40, CAMK1D (Homo sapiens, UniProt Q8IU85)
# T40 construct: purchased DiscoveRx KINOMEscan
# [41] = biological target: T41, BMPR1B (Homo sapiens, UniProt O00238)
# T41 construct: purchased DiscoveRx KINOMEscan
# [42] = biological target: T42, MAPKAPK2 (Homo sapiens, UniProt P49137)
# T42 construct: purchased DiscoveRx KINOMEscan
# [43] = biological target: T43, NEK1 (Homo sapiens, UniProt Q96PY6)
# T43 construct: purchased DiscoveRx KINOMEscan
# T29 sequence (P21802 22-821): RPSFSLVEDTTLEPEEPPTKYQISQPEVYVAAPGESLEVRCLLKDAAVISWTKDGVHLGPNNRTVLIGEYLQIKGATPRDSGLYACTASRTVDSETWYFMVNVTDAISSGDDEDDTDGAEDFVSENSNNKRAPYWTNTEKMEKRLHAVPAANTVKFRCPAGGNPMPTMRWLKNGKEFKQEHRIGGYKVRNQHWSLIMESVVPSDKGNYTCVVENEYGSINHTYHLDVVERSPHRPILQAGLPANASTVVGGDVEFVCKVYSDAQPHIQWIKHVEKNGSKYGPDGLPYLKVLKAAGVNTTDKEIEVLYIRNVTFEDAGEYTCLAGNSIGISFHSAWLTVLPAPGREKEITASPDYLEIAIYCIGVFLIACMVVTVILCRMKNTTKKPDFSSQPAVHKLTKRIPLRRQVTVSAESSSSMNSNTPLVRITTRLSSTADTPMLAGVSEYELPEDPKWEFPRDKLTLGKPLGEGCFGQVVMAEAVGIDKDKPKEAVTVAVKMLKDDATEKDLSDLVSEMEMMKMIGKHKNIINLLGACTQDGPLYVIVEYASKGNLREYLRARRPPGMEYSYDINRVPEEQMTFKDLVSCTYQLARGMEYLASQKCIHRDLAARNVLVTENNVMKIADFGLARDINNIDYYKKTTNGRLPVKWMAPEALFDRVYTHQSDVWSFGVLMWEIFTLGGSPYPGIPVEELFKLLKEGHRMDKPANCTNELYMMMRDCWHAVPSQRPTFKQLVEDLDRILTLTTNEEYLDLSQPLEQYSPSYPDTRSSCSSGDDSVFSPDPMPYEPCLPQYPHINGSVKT
# T19 sequence (Q02779 whole entry): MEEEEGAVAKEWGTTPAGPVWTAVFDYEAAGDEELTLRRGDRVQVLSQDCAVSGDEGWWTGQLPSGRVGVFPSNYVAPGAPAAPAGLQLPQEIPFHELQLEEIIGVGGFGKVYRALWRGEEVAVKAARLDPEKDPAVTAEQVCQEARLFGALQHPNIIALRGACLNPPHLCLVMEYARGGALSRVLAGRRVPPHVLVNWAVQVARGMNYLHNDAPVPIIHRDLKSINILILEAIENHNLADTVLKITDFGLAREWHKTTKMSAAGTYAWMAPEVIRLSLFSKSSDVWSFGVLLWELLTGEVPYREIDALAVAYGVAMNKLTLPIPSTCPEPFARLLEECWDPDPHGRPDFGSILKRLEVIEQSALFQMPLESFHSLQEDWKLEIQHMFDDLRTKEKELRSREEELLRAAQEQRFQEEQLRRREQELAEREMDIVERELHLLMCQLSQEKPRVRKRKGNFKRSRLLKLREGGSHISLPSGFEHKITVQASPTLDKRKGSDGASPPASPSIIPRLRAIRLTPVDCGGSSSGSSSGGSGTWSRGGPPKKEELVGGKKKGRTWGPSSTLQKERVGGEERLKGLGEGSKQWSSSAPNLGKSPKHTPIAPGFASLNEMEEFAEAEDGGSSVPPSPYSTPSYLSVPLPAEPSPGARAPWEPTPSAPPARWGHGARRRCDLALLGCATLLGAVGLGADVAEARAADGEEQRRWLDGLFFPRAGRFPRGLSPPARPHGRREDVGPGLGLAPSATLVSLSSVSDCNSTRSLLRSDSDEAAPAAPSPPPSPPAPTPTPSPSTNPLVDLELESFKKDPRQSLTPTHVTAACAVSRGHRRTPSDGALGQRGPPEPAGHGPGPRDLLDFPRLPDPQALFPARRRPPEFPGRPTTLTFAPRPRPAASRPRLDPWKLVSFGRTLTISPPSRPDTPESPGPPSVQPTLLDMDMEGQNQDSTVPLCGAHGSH
# T40 sequence (Q8IU85 whole entry): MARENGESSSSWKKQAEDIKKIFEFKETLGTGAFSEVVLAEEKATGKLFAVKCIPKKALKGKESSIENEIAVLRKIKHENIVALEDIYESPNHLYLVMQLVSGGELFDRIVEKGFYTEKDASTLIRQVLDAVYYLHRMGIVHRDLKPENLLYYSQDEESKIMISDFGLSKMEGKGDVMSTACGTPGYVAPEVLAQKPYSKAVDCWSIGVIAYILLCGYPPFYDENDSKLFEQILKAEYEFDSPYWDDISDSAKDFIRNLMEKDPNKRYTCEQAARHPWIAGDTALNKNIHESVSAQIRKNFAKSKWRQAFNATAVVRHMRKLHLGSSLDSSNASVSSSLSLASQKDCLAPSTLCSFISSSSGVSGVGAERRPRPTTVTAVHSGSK
# T20 sequence (Q04912 25-1400): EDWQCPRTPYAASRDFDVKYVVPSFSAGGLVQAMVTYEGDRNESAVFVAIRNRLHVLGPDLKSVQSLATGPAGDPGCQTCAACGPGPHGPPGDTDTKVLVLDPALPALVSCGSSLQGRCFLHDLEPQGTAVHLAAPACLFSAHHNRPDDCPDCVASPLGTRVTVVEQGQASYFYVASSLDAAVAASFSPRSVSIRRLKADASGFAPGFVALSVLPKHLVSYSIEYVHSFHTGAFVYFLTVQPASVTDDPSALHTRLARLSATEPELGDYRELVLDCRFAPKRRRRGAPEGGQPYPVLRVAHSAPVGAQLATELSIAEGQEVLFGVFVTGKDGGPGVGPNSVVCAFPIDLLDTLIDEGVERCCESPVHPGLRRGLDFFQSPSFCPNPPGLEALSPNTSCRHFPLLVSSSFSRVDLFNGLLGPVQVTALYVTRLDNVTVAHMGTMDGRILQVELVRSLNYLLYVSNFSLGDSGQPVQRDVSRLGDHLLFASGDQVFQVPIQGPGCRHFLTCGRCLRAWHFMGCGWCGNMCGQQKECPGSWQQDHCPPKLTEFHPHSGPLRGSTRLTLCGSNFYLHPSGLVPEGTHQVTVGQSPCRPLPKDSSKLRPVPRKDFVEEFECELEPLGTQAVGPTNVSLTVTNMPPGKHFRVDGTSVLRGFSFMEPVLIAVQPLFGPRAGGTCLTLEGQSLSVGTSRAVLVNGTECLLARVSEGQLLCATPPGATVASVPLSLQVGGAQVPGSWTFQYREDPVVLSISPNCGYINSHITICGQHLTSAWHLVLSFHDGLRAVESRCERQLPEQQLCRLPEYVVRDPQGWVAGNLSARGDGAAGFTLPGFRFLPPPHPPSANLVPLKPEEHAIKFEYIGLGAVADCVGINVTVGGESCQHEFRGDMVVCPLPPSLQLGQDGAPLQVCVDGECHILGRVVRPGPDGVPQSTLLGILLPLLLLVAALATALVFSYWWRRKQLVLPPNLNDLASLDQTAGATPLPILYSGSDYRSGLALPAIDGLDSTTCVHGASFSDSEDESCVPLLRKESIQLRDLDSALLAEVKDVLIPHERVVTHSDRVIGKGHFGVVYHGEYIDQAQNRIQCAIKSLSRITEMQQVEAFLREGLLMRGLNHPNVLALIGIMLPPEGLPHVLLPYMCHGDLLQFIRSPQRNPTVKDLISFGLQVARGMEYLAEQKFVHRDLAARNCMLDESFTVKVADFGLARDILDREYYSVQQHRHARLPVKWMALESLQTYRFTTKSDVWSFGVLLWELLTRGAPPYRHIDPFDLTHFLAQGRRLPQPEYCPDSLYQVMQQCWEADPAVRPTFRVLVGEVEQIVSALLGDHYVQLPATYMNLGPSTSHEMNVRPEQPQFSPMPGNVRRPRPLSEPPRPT
# T15 sequence (P22607 23-806): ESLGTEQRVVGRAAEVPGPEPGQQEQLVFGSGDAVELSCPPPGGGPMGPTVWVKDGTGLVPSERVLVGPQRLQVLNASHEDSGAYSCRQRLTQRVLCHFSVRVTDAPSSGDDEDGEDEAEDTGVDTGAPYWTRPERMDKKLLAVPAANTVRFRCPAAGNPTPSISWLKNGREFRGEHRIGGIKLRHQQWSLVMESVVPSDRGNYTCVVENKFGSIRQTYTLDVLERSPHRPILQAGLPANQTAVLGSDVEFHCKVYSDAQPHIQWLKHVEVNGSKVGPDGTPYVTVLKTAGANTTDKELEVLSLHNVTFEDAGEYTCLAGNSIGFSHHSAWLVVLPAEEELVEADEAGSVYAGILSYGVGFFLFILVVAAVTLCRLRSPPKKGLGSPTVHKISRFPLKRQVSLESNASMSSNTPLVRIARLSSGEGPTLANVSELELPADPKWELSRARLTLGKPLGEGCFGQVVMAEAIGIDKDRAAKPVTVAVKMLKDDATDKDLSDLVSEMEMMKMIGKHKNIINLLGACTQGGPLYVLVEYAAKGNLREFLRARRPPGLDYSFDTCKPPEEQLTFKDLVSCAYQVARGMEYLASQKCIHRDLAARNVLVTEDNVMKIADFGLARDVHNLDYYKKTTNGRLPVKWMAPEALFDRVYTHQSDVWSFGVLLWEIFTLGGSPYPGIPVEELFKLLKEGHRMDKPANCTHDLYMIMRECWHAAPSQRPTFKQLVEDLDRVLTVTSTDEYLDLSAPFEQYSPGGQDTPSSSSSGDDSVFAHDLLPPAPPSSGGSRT
# T23 sequence (Q8N752 whole entry): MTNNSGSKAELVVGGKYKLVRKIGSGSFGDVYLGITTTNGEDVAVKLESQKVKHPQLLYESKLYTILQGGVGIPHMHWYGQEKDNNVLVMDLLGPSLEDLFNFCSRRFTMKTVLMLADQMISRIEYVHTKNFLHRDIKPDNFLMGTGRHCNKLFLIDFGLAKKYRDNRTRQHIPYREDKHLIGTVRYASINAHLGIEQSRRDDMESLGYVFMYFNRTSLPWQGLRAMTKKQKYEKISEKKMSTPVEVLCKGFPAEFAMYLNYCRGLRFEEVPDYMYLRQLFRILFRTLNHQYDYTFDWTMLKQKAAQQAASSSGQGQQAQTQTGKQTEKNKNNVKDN
smiles,measurement,setting,value
CCN(C(=O)CO)[C@H]1CN(/C(=N\C#N)Nc2cccc(OC(F)F)c2)N=C1c1ccc(Cl)c(Cl)c1 [(S)-4],remaining binding at 1 µM,[1],100%
same,remaining binding at 1 µM,[2],100%
same,remaining binding at 1 µM,[3],92%
same,remaining binding at 1 µM,[4],100%
same,remaining binding at 1 µM,[5],100%
same,remaining binding at 1 µM,[6],56%
same,remaining binding at 1 µM,[7],86%
same,remaining binding at 1 µM,[8],100%
same,remaining binding at 1 µM,[9],100%
same,remaining binding at 1 µM,[10],100%
same,remaining binding at 1 µM,[11],88%
same,remaining binding at 1 µM,[12],100%
same,remaining binding at 1 µM,[13],91%
same,remaining binding at 1 µM,[14],99%
same,remaining binding at 1 µM,[15],88%
same,remaining binding at 1 µM,[16],92%
same,remaining binding at 1 µM,[17],68%
same,remaining binding at 1 µM,[18],100%
same,remaining binding at 1 µM,[19],77%
same,remaining binding at 1 µM,[20],81%
same,remaining binding at 1 µM,[21],97%
same,remaining binding at 1 µM,[22],86%
same,remaining binding at 1 µM,[23],94%
same,remaining binding at 1 µM,[24],96%
same,remaining binding at 1 µM,[25],100%
same,remaining binding at 1 µM,[26],100%
same,remaining binding at 1 µM,[27],100%
same,remaining binding at 1 µM,[28],89%
same,remaining binding at 1 µM,[29],86%
same,remaining binding at 1 µM,[30],100%
same,remaining binding at 1 µM,[31],100%
same,remaining binding at 1 µM,[32],59%
same,remaining binding at 1 µM,[33],100%
same,remaining binding at 1 µM,[34],92%
same,remaining binding at 1 µM,[35],92%
same,remaining binding at 1 µM,[36],73%
same,remaining binding at 1 µM,[37],84%
same,remaining binding at 1 µM,[38],73%
same,remaining binding at 1 µM,[39],100%
same,remaining binding at 1 µM,[40],90%
same,remaining binding at 1 µM,[41],100%
same,remaining binding at 1 µM,[42],91%
same,remaining binding at 1 µM,[43],93%
